Data as given in PubChem BioAssay AID248 (DTP/NCI, 2004).
Toxic doses and inconclusive results are not listed. No stated cut-off is given here; in the data, active means T/C of 150% or more; inactive means T/C below 125%.

Test system: L1210 leukemia ip in BDF1 mice, survival T/C
Assay: NCI In Vivo Anticancer Drug Screen. Data for tumor model L1210 Leukemia (intraperitoneal) in B6D2F1 (BDF1) mice
Settings: endpoint: mean survival time, higher = longer survival
In short: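 Read-out is survival time, reported as the treated-group measurement over the vehicle-control measurement.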

[1] = dose: 100.0 mg/kg/injection, schedule: Q04DX002 (ip), vehicle: Klucel (hydroxypropylcellulose) (HPC)
[2] = dose: 200.0 mg/kg/injection, schedule: Q04DX002 (ip), vehicle: Klucel (hydroxypropylcellulose) (HPC)
[3] = dose: 400.0 mg/kg/injection, schedule: Q04DX002 (ip), vehicle: Klucel (hydroxypropylcellulose) (HPC)
[4] = dose: 100.0 mg/kg/injection, schedule: Q01DX001 (ip), vehicle: saline
[5] = dose: 100.0 mg/kg/injection, schedule: Q04DX002 (ip), vehicle: saline
[6] = dose: 200.0 mg/kg/injection, schedule: Q04DX002 (ip), vehicle: saline
[7] = dose: 400.0 mg/kg/injection, schedule: Q04DX002 (ip), vehicle: saline
[8] = dose: 12.5 mg/kg/injection, schedule: Q04DX003 (ip), vehicle: saline
[9] = dose: 25.0 mg/kg/injection, schedule: Q04DX003 (ip), vehicle: saline
[10] = dose: 50.0 mg/kg/injection, schedule: Q04DX003 (ip), vehicle: saline
[11] = dose: 100.0 mg/kg/injection, schedule: Q01DX009 (ip), vehicle: Klucel (hydroxypropylcellulose) (HPC)
[12] = dose: 200.0 mg/kg/injection, schedule: Q01DX009 (ip), vehicle: Klucel (hydroxypropylcellulose) (HPC)
[13] = dose: 400.0 mg/kg/injection, schedule: Q01DX009 (ip), vehicle: saline
[14] = dose: 200.0 mg/kg/injection, schedule: Q01DX001 (ip), vehicle: saline
[15] = dose: 400.0 mg/kg/injection, schedule: Q01DX001 (ip), vehicle: saline
[16] = dose: 100.0 mg/kg/injection, schedule: Q04DX003 (ip), vehicle: saline with Tween-80
[17] = dose: 200.0 mg/kg/injection, schedule: Q04DX003 (ip), vehicle: saline with Tween-80
[18] = dose: 400.0 mg/kg/injection, schedule: Q04DX003 (ip), vehicle: saline with Tween-80

Measured: T/C

CC1(C)CC(=O)C2=C(C1)Nc1ccccc1NC2c1ccc([N+](=O)[O-])cc1 (centres undefined)
inactive: [1] 103 % of control | [2] 109 % of control | [3] 106 % of control

Cc1ccc(S(=O)(=O)OCC2C3C=CC(C4C=CC43)C2COS(=O)(=O)c2ccc(C)cc2)cc1 (centres undefined)
inactive: [1] 94 % of control | [2] 98 % of control | [3] 98 % of control

c1ccc(CN2CCN(CC3CC3)CC2)cc1
inactive: dose: 12.5 mg/kg/injection, schedule: Q04DX003 (ip), vehicle: Klucel (hydroxypropylcellulose) (HPC) 103 % of control | dose: 25.0 mg/kg/injection, schedule: Q04DX003 (ip), vehicle: Klucel (hydroxypropylcellulose) (HPC) 98 % of control | dose: 50.0 mg/kg/injection, schedule: Q04DX003 (ip), vehicle: Klucel (hydroxypropylcellulose) (HPC) 110 % of control

CCCNc1ccc(C2=NCCCN2)cc1
inactive: [4] 102 % of control

BrCc1cccc2cccnc12
inactive: dose: 1.56 mg/kg/injection, schedule: Q01DX009 (ip), vehicle: saline with Tween-80 93 % of control | dose: 3.13 mg/kg/injection, schedule: Q01DX009 (ip), vehicle: saline with Tween-80 96 % of control | dose: 6.25 mg/kg/injection, schedule: Q01DX009 (ip), vehicle: saline with Tween-80 91 % of control | dose: 12.5 mg/kg/injection, schedule: Q01DX009 (ip), vehicle: saline with Tween-80 91 % of control

CCC(CS(=O)(=O)O)[N+](=O)[O-] (centres undefined)
inactive: [5] 96 % of control | [6] 96 % of control | [7] 107 % of control

C=CC[P+](Cc1cccc(OC)c1)(c1ccccc1)c1ccccc1
inactive: dose: 6.25 mg/kg/injection, schedule: Q04DX003 (ip), vehicle: saline 98 % of control | [8] 98 % of control | [9] 98 % of control | [10] 93 % of control

CCCCCc1cc[n+](CC(O)c2ccccc2)cc1 (centres undefined)
inactive: [4] 94 % of control

CCOC(COc1ccccc1)c1ccccc1 (centres undefined)
inactive: [11] 106 % of control | [12] 113 % of control | dose: 400.0 mg/kg/injection, schedule: Q01DX009 (ip), vehicle: Klucel (hydroxypropylcellulose) (HPC) 106 % of control

CCCCOc1ccc(NC(N)=Nc2ccc(Cl)cc2)cc1
inactive: dose: 2.5 mg/kg/injection, schedule: Q01DX009 (ip), vehicle: saline with Tween-80 102 % of control | dose: 5.0 mg/kg/injection, schedule: Q01DX009 (ip), vehicle: saline with Tween-80 94 % of control | dose: 10.0 mg/kg/injection, schedule: Q01DX009 (ip), vehicle: saline with Tween-80 96 % of control | dose: 10.0 mg/kg/injection, schedule: Q04DX003 (ip), vehicle: saline with Tween-80 101 % of control | dose: 12.5 mg/kg/injection, schedule: Q01DX001 (ip), vehicle: carboxymethylcellulose (CMC) 109 % of control | dose: 20.0 mg/kg/injection, schedule: Q01DX009 (ip), vehicle: saline with Tween-80 103 % of control | dose: 20.0 mg/kg/injection, schedule: Q04DX003 (ip), vehicle: saline with Tween-80 92 % of control | dose: 25.0 mg/kg/injection, schedule: Q01DX001 (ip), vehicle: carboxymethylcellulose (CMC) 100 % of control | dose: 40.0 mg/kg/injection, schedule: Q04DX003 (ip), vehicle: saline with Tween-80 97 % of control | dose: 50.0 mg/kg/injection, schedule: Q01DX001 (ip), vehicle: carboxymethylcellulose (CMC) 100 % of control | dose: 80.0 mg/kg/injection, schedule: Q04DX003 (ip), vehicle: saline with Tween-80 98 % of control

COc1cc2c(cc1OC)C1CCc3cc4c(cc3C1N=C2)OCO4 (centres undefined)
inactive: dose: 80.0 mg/kg/injection, schedule: Q01DX009 (ip), vehicle: saline 96 % of control | dose: 120.0 mg/kg/injection, schedule: Q01DX009 (ip), vehicle: saline 98 % of control | dose: 240.0 mg/kg/injection, schedule: Q01DX009 (ip), vehicle: saline 98 % of control | [13] 91 % of control

CC(=O)Nc1ccc(N=C/C=C/c2ccccc2)cc1
inactive: [4] 93 % of control | [14] 94 % of control | [15] 98 % of control

CSc1ccc(OC(=O)Nc2ccc(C)cc2[N+](=O)[O-])cc1
inactive: dose: 50.0 mg/kg/injection, schedule: Q01DX009 (ip), vehicle: Klucel (hydroxypropylcellulose) (HPC) 90 % of control | [11] 90 % of control | dose: 100.0 mg/kg/injection, schedule: Q04DX003 (ip), vehicle: Klucel (hydroxypropylcellulose) (HPC) 97 % of control | [12] 100 % of control | dose: 200.0 mg/kg/injection, schedule: Q04DX003 (ip), vehicle: Klucel (hydroxypropylcellulose) (HPC) 99 % of control | dose: 400.0 mg/kg/injection, schedule: Q04DX003 (ip), vehicle: Klucel (hydroxypropylcellulose) (HPC) 97 % of control

O=C1OC(=O)C2C1C1c3ccccc3C13c1ccccc1C23 (centres undefined)
inactive: [4] 92 % of control | dose: 100.0 mg/kg/injection, schedule: Q01DX009 (ip), vehicle: saline 110 % of control | [14] 94 % of control | dose: 200.0 mg/kg/injection, schedule: Q01DX009 (ip), vehicle: saline 100 % of control | [15] 97 % of control | [13] 89 % of control

CN(C(=O)c1cccnc1)c1ccccc1
inactive: [16] 94 % of control | [17] 96 % of control | [18] 107 % of control

O=C(Cc1ccccc1)c1ccccn1
inactive: dose: 100.0 mg/kg/injection, schedule: Q01DX001 (ip), vehicle: other 95 % of control | dose: 200.0 mg/kg/injection, schedule: Q01DX001 (ip), vehicle: other 98 % of control | dose: 400.0 mg/kg/injection, schedule: Q01DX001 (ip), vehicle: other 101 % of control

CCCCCCCCCC(=O)N1C(C)CCCC1C (centres undefined)
inactive: [5] 94 % of control | [6] 105 % of control | [7] 105 % of control

CC[NH-].CC[NH-].[I][Pt+2][I]
inactive: [8] 106 % of control | dose: 25.0 mg/kg/injection, schedule: Q01DX009 (ip), vehicle: saline 109 % of control | [9] 101 % of control | dose: 50.0 mg/kg/injection, schedule: Q01DX009 (ip), vehicle: saline 105 % of control | [10] 101 % of control | dose: 100.0 mg/kg/injection, schedule: Q04DX003 (ip), vehicle: saline 110 % of control

Cc1ccc(C(=O)C2CC2)c(C)c1
inactive: dose: 100.0 mg/kg/injection, schedule: Q01DX009 (ip), vehicle: saline with Tween-80 105 % of control | [16] 96 % of control | dose: 200.0 mg/kg/injection, schedule: Q01DX009 (ip), vehicle: saline with Tween-80 98 % of control | [17] 95 % of control | dose: 400.0 mg/kg/injection, schedule: Q01DX009 (ip), vehicle: saline with Tween-80 109 % of control | [18] 93 % of control

O=S1(=O)CC2=C1/C=C/CCCC2
inactive: dose: 5.0 mg/kg/injection, schedule: Q04DX002 (ip), vehicle: Klucel (hydroxypropylcellulose) (HPC) 90 % of control | dose: 10.0 mg/kg/injection, schedule: Q01DX001 (ip), vehicle: saline 102 % of control | dose: 10.0 mg/kg/injection, schedule: Q04DX002 (ip), vehicle: Klucel (hydroxypropylcellulose) (HPC) 96 % of control
